Source: ChEMBL document CHEMBL1152560, “Substituted 2-arylbenzothiazoles as kinase inhibitors: hit-to-lead optimization” (Bioorg Med Chem, 2009)

Key:
[1] = target: Ephrin type-A receptor 2 (Homo sapiens) (UniProt P29317); assay: Residual activity of EPHA2 at 10 uM by microplate scintillation counting
[2] = target: T1, Phosphorylase b kinase gamma catalytic chain, liver/testis isoform (Homo sapiens) (UniProt P15735); assay: Residual activity of PHKG2 at 1 uM by microplate scintillation counting
T1 sequence (whole entry): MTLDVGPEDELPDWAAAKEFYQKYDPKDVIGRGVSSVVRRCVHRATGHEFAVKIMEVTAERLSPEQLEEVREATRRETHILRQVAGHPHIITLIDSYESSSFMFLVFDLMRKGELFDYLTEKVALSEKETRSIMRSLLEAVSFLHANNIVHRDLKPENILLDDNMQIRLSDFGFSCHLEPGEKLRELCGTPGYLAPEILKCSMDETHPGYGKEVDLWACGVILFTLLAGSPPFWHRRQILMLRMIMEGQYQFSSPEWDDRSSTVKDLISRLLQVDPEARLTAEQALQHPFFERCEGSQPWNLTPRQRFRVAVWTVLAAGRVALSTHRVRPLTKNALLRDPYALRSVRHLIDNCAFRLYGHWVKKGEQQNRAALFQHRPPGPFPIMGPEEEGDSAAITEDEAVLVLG

[3] = target: Tyrosine-protein kinase ABL2 (Homo sapiens) (UniProt P42684); assay: Residual activity of ABL2 at 0.1 uM by microplate scintillation counting
[4] = target: T2, Ephrin type-A receptor 3 (Homo sapiens) (UniProt P29320); assay: Residual activity of EPHA3 at 10 uM by microplate scintillation counting
T2 sequence (whole entry): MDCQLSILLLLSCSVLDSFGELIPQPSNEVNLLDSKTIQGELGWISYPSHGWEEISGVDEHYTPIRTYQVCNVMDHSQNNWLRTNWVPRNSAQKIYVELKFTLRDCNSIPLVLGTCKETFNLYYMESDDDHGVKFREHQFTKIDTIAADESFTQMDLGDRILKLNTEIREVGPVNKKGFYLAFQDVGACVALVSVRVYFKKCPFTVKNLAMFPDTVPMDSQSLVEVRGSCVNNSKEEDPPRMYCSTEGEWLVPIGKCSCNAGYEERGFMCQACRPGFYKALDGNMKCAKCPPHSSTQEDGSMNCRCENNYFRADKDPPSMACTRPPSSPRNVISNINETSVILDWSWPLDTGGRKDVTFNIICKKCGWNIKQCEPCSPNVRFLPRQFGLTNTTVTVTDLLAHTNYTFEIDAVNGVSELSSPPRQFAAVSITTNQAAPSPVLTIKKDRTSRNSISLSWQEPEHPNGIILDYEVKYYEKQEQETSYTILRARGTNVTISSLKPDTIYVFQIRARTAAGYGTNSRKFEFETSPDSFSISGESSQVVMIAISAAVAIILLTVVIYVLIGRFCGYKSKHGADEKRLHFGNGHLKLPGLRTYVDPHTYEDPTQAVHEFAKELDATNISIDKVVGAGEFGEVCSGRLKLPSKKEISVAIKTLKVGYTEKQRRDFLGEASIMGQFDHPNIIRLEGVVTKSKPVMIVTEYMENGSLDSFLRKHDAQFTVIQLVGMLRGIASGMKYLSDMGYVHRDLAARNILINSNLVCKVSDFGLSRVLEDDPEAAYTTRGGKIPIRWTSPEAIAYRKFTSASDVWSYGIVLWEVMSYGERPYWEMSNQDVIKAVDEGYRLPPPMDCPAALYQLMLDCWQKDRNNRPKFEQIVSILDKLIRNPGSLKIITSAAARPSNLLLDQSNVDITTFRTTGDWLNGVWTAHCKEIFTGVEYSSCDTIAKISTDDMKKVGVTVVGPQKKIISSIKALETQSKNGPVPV

[5] = target: Focal adhesion kinase 1 (Homo sapiens) (UniProt Q05397); assay: Residual activity of FAK at 0.1 uM by microplate scintillation counting
[6] = target: Serine/threonine-protein kinase PLK3 (Homo sapiens) (UniProt Q9H4B4); assay: Residual activity of PLK3 at 10 uM by microplate scintillation counting
[7] = target: Glycogen synthase kinase-3 beta (Homo sapiens) (UniProt P49841); assay: Residual activity of GSK3-beta at 10 uM by microplate scintillation counting
[8] = target: CDC42BPA protein (Homo sapiens) (UniProt B9EGA7); assay: Residual activity of CDC42BPA at 1 uM by microplate scintillation counting
[9] = target: Receptor-type tyrosine-protein kinase FLT3 (Homo sapiens) (UniProt P36888); assay: Residual activity of wild type FLT3 at 10 uM by microplate scintillation counting
[10] = target: Tyrosine-protein kinase Fgr (Homo sapiens) (UniProt P09769); assay: Residual activity of FGR at 10 uM by microplate scintillation counting
[11] = target: Mitogen-activated protein kinase 14 (Homo sapiens) (UniProt Q16539); assay: Residual activity of p38alpha at 10 uM by microplate scintillation counting
[12] = target: T3, Protein kinase C zeta type (Homo sapiens) (UniProt Q05513); assay: Residual activity of PKCzeta at 10 uM by microplate scintillation counting
T3 sequence (whole entry): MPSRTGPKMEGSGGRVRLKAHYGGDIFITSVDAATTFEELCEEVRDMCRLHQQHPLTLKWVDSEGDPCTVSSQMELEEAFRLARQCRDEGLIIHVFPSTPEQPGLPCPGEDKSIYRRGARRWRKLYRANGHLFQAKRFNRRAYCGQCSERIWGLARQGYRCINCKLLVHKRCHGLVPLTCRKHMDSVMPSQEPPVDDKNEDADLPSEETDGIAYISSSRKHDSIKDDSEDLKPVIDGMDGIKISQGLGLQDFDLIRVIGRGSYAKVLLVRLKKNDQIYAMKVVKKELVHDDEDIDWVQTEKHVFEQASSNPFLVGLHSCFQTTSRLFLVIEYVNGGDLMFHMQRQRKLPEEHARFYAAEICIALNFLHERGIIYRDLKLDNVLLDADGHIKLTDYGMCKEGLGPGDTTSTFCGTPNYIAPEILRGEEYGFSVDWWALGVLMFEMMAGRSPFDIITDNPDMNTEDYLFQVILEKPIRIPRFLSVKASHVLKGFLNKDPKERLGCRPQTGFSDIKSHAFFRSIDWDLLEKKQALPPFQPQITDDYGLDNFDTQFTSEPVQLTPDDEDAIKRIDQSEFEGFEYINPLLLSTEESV

[13] = target: Fibroblast growth factor receptor 2 (Homo sapiens) (UniProt P21802); assay: Residual activity of FGFR2 at 10 uM by microplate scintillation counting
Chain of Fibroblast growth factor receptor 2 (Homo sapiens) (P21802 22-821 limits assumed): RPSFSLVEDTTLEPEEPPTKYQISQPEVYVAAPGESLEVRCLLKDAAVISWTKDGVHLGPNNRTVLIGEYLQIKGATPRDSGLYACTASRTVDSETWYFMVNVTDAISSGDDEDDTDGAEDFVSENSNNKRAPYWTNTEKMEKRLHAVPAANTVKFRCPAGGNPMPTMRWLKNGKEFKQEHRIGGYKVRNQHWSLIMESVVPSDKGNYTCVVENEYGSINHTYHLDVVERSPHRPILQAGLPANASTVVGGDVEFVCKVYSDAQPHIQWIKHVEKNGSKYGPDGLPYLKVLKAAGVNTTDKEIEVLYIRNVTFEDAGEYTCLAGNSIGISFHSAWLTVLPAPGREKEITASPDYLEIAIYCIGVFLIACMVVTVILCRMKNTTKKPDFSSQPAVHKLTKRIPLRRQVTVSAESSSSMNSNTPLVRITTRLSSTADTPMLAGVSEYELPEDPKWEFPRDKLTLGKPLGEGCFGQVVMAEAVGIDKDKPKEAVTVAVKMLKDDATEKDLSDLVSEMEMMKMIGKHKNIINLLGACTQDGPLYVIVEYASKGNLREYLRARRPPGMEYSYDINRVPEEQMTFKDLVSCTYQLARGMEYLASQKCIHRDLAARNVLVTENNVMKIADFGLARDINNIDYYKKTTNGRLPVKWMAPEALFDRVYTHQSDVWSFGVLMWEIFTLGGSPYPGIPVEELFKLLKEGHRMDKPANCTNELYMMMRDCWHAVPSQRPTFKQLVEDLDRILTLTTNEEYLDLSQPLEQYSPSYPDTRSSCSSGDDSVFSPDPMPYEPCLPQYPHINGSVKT

Chain of Tyrosine-protein kinase ABL2 (Homo sapiens) (P42684 whole entry): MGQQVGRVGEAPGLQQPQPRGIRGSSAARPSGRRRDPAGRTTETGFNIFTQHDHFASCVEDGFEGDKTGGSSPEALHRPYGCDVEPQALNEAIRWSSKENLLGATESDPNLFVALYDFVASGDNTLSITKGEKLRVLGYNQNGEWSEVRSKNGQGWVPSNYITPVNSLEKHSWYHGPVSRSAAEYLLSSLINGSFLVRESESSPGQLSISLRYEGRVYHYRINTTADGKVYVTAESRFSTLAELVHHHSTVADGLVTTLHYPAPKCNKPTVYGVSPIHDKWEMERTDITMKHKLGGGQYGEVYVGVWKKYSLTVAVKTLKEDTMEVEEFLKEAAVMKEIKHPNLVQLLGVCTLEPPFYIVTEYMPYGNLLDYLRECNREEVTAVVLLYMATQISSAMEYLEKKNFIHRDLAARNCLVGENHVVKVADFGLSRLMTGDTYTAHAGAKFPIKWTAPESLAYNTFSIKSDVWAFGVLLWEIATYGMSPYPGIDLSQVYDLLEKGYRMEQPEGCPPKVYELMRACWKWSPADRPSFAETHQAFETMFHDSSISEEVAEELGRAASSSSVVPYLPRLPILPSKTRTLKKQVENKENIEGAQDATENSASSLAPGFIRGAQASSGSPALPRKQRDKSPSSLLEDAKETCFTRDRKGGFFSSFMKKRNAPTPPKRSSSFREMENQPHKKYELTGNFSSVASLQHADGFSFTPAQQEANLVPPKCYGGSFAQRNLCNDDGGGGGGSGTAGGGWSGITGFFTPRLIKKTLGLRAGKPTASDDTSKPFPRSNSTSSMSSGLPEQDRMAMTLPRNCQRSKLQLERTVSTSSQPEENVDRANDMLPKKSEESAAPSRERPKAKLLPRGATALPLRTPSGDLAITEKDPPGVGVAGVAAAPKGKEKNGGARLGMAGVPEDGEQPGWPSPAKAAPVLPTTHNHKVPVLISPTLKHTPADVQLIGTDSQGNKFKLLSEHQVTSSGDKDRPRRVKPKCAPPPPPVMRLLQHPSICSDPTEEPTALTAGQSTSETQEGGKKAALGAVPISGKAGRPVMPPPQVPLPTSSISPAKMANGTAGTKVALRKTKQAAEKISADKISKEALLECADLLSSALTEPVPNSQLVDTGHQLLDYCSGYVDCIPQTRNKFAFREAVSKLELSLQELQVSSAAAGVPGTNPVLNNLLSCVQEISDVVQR
Chain of Ephrin type-A receptor 2 (Homo sapiens) (P29317 whole entry, canonical isoform): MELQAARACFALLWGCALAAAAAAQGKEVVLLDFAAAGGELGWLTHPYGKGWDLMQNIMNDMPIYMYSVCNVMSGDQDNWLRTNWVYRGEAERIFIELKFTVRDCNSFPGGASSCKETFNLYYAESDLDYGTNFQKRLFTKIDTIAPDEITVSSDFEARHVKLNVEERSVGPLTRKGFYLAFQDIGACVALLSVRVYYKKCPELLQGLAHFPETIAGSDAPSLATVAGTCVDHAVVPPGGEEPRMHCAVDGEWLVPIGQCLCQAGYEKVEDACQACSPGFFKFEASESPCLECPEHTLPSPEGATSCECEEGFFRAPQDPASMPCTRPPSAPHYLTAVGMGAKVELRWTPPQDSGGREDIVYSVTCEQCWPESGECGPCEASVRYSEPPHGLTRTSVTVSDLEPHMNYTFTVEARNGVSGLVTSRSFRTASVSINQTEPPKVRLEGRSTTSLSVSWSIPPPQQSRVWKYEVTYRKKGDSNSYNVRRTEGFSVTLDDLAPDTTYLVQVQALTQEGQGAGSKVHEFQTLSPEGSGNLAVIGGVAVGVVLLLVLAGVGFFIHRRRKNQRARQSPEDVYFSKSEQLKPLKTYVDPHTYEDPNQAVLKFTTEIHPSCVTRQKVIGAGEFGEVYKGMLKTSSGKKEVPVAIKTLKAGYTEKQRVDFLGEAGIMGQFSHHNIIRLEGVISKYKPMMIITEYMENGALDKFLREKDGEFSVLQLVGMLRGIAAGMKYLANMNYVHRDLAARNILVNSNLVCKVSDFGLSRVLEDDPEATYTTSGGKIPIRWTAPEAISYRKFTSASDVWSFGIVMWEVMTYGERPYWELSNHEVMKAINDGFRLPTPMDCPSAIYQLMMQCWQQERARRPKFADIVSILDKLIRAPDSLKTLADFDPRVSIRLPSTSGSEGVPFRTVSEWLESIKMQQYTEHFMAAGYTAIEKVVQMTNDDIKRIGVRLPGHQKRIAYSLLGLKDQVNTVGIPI
Chain of Focal adhesion kinase 1 (Homo sapiens) (Q05397 2-1052 limits assumed): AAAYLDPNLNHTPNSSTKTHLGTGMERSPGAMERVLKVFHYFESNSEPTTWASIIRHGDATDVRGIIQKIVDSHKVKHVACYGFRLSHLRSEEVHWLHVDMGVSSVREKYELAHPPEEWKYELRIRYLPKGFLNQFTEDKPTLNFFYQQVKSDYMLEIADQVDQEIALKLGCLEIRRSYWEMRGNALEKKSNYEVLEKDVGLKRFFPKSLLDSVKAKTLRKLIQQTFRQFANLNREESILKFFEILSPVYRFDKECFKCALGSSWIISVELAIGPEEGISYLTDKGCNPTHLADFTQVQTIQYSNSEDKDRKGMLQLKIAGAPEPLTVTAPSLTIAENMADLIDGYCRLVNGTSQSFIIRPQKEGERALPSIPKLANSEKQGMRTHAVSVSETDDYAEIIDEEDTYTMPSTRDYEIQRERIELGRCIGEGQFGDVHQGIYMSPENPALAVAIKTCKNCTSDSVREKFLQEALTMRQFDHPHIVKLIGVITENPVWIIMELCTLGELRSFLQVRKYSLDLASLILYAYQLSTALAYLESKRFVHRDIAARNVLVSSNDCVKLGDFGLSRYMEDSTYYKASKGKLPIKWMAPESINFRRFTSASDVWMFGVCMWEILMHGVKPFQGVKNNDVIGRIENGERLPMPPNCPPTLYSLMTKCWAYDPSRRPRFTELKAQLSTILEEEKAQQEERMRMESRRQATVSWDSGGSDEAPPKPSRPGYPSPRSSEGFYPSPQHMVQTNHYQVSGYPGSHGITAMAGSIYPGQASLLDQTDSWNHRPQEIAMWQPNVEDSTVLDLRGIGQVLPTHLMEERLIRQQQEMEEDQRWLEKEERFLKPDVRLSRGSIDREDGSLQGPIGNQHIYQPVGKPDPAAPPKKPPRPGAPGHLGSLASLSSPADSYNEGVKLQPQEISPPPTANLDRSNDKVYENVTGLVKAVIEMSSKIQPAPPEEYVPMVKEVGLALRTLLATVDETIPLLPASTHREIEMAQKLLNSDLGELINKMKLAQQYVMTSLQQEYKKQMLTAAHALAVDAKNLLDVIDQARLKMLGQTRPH
Chain of Glycogen synthase kinase-3 beta (Homo sapiens) (P49841 whole entry, looked up): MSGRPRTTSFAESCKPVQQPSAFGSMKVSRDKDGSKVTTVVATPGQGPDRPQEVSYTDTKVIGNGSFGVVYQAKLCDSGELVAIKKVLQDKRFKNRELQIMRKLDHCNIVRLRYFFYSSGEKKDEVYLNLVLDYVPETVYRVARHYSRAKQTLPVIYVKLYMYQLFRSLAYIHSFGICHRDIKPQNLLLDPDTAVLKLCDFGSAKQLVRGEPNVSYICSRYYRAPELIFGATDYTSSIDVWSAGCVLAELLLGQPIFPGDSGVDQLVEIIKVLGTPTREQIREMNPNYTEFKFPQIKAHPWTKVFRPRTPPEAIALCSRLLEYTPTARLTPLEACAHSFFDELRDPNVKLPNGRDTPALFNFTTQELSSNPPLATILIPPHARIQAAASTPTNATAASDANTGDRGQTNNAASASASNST
Chain of Mitogen-activated protein kinase 14 (Homo sapiens) (Q16539 whole entry): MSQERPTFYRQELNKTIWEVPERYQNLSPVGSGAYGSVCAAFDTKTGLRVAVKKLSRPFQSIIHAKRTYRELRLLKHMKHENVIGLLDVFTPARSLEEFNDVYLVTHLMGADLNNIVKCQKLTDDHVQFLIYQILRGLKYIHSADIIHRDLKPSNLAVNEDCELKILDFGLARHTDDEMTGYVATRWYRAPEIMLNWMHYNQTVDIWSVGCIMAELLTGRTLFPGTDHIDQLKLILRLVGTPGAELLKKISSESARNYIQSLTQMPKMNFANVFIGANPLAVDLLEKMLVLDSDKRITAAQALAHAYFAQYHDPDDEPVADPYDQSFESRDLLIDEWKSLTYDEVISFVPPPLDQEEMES

Row | residual activity [1] [%] | residual activity [2] [%] | residual activity [3] [%] | residual activity [4] [%] | residual activity [5] [%] | residual activity [6] [%] | residual activity [7] [%] | residual activity [8] [%] | residual activity [9] [%] | residual activity [10] [%] | residual activity [11] [%] | residual activity [12] [%] | residual activity [13] [%] | Compound
1 | 187 | 80 | 116 | 182 | 99 | 223 | 104 | 117 | 42 | 90 | 325 | 64 | 113 | COc1cc2c(Oc3ccc(-c4nc5ccccc5s4)cc3)ncnc2cc1OCCCN1CCCC1
2 | 190 | 96 | 100 | 236 | 94 | 2 | 123 | 117 | 13 | 82 | 327 | 72 | 136 | COc1cc2c(Oc3ccc(-c4nc5ccccc5s4)cc3)ncnc2cc1OCCCN1CCN(C)CC1
3 | 73 | 72 | 96 | 143 | 98 | 257 | 98 | 89 | 6 | 24 | 320 | 74 | 86 | COc1cc2c(Oc3ccc(-c4nc5ccccc5s4)cc3F)ncnc2cc1OCCCN1CCN(C)CC1
